Experimental data published in PubChem BioAssay (NCI).
Several values for one entry are separate records, joined by “and”; a condition that tells them apart may be missing. Equal entries are not always repeated.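 These data come from cells grown in 96-well plates and exposed to compound for 48 hours at five concentrations. GI50 marks 50% less growth. Definition used: TGI = concentration required for complete inhibition of growth.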

Experiments:
Experiment in all cases: NCI-60 cell line screen, 48 h
A549 NSCLC = test system: A549 NSCLC
CCRF-CEM leukemia = test system: CCRF-CEM leukemia
IGROV1 ovarian = test system: IGROV1 ovarian
NCI-H23 lung = test system: NCI-H23 lung
NCI-H460 lung = test system: NCI-H460 lung
NCI/ADR-RES ovarian = test system: NCI/ADR-RES ovarian
OVCAR-3 ovarian = test system: OVCAR-3 ovarian
OVCAR-5 ovarian = test system: OVCAR-5 ovarian
SK-OV-3 ovarian = test system: SK-OV-3 ovarian
SR leukemia = test system: SR leukemia

| SMILES | GI50 (A549 NSCLC) | TGI (A549 NSCLC) | GI50 (CCRF-CEM leukemia) | TGI (CCRF-CEM leukemia) | GI50 (IGROV1 ovarian) | TGI (IGROV1 ovarian) | GI50 (NCI-H23 lung) | TGI (NCI-H23 lung) | GI50 (NCI-H460 lung) | TGI (NCI-H460 lung) | GI50 (NCI/ADR-RES ovarian) | TGI (NCI/ADR-RES ovarian) | GI50 (OVCAR-3 ovarian) | TGI (OVCAR-3 ovarian) | GI50 (OVCAR-5 ovarian) | TGI (OVCAR-5 ovarian) | GI50 (SK-OV-3 ovarian) | TGI (SK-OV-3 ovarian) | GI50 (SR leukemia) | TGI (SR leukemia) |
| --- | --- | --- | --- | --- | --- | --- | --- | --- | --- | --- | --- | --- | --- | --- | --- | --- | --- | --- | --- | --- |
| COc1ccc(/C(C)=C(\c2ccc(Cl)cc2)c2ccc(OCCN3CCCCC3)cc2)cc1F | 4.43 µM | > 16.7 µM | 3.98 µM | 16.1 µM | 3.16 µM | 9.37 µM | 2.78 µM | 7.09 µM | 2.59 µM | 5.38 µM | 3.53 µM | 9.67 µM | 3.25 µM | 6.65 µM | 3.06 µM | 9.45 µM | 5.92 µM | > 16.7 µM | 1.8 µM | > 16.7 µM |
| CC(CCC/C=C/CCCN(C)C(=N)N)CC(C)C1OC(=O)C(C)C(O)/C=C/C(C)C(O)C(C)C(O)C(C)C(O)CCCC(O)CC2(O)OC(CC(OC(=O)CC(=O)O)CC(O)CC(O)C(C)C(O)/C=C/C=C/C1C)CC(O)C2O (centres undefined) | 2.45 µM and 4.42 µg/mL | 5.63 µM and 16.8 µg/mL | 2.7 µM | 11 µM | 2.51 µM and 3.12 µg/mL | 5.01 µM and 12.4 µg/mL | 5.99 µM and 13.7 µg/mL | 20.8 µM and 29.4 µg/mL | 2.09 µM and 3.95 µg/mL | 3.95 µM and 14.5 µg/mL | 5.99 µM and 15.9 µg/mL | 20.4 µM and 34.3 µg/mL | 1.92 µM and 5.68 µg/mL | 3.42 µM and 15.1 µg/mL | 14.4 µM and 13.5 µg/mL | 29.9 µM and 26.1 µg/mL | 3 µM and 9.08 µg/mL | 11.7 µM and 18.5 µg/mL | 2.59 µM and 3.67 µg/mL | 4.88 µM and 47 µg/mL |
| COc1ccc(-c2nccn2-c2cc(OC)c(OC)c(OC)c2)cc1 | 4.94 µM | > 100 µM | 8.13 µM | > 100 µM | 1.79 µM | > 100 µM | 9.09 µM | > 100 µM | 1.6 µM | > 100 µM | 1.17 µM | 22.2 µM | 1.07 µM | – | 10.8 µM | > 79.4 µM | 6.13 µM | > 25.6 µM | > 100 µM | > 100 µM |
| NC(=O)NOCC1NC(=O)NC1=O (centres undefined) | – | > 100 µM | – | > 100 µM | – | > 100 µM | – | > 100 µM | – | > 100 µM | – | > 100 µM | – | > 100 µM | – | > 100 µM | – | > 100 µM | – | > 100 µM |
| Cn1c(N)cc(=O)nc1N | – | > 100 µM | – | > 100 µM | – | > 100 µM | – | > 100 µM | – | > 100 µM | – | > 100 µM | – | > 100 µM | – | > 100 µM | – | > 100 µM | – | > 100 µM |
| COc1ccc(C2CC(c3cccc(Nc4ccnc5cc(Cl)ccc45)c3)=NN2c2ccc(Cl)cc2)cc1 (centres undefined) | 4.7 µM | > 100 µM | 1.84 µM | 43.4 µM | 18.8 µM | > 100 µM | 17.5 µM | > 100 µM | 3.04 µM | 17.4 µM | 9.51 µM | 43.4 µM | 11 µM | > 100 µM | 15.6 µM | 87 µM | 15 µM | 99.3 µM | 4.29 µM | 32.5 µM |
| C/C=C\C(C)=C/C(C)C(=O)CC(O)CC1CC(=O)NC(=O)C1 (centres undefined) | – | > 100 µM | – | > 100 µM | – | > 100 µM | – | > 100 µM | – | > 100 µM | – | 48.2 µM | – | > 100 µM | – | > 100 µM | – | > 100 µM | – | > 63.1 µM |
| O=C(NC(c1ccccc1)C(O)C(=O)OCc1ccc2c(c1)C(=O)c1ccccc1C2=O)c1ccccc1 (centres undefined) | – | 54 µM | – | > 100 µM | – | 48.5 µM | – | 34.5 µM | – | 42.8 µM | – | 33.9 µM | – | 34.6 µM | – | 79.9 µM | – | 15.3 µM | – | > 88.3 µM |
| COc1ccc(N2CCN(CC(=O)N3CCN(c4nnc(-c5ccc(Cl)cc5)c(-c5ccc(Cl)cc5)n4)CC3)CC2)cc1 | 11.8 µM | > 100 µM | 12.6 µM | > 100 µM | 16 µM | > 100 µM | 35.9 µM | > 100 µM | 7 µM | > 100 µM | > 100 µM | > 100 µM | 11.3 µM | > 100 µM | > 100 µM | > 100 µM | > 100 µM | > 100 µM | 2.56 µM | 8.65 µM |
| CN(C)c1ccc(/C=C/C(=O)c2ccc(Nc3nc(Nc4ccc(F)cc4)nc(Nc4ccc(Cl)cc4)n3)cc2)cc1 | 5.03 µM | 35.1 µM | 2.57 µM | 9.44 µM | 3.02 µM | 22.1 µM | 5.95 µM | 39.5 µM | 3.94 µM | 15.6 µM | 3.56 µM | 33.4 µM | 5.48 µM | 21.6 µM | 20.3 µM | > 100 µM | 19 µM | 74.9 µM | 1.06 µM | 3.67 µM |
| CCCC1C2=C(C(=O)OC2=O)C2C(CC)CC3=C(C(=O)OC3=O)C12 (centres undefined) | – | > 100 µM | – | > 100 µM | – | > 100 µM | – | > 100 µM | – | > 100 µM | – | > 100 µM | – | > 100 µM | – | > 100 µM | – | > 100 µM | – | > 100 µM |
| Cc1nc2cc(NC(=O)CN3CCN(CCN4C(=O)c5cccc6cccc(c56)C4=O)CC3)ccc2s1 | 4.14 µM | 19.2 µM | 2.94 µM | 95.9 µM | 6.05 µM | > 100 µM | 6.6 µM | 38.2 µM | 3.44 µM | 13.1 µM | 4.05 µM | 29.5 µM | 7.91 µM | 20.7 µM | 14.1 µM | > 100 µM | 7.65 µM | > 100 µM | 1.19 µM | > 100 µM |
| CCS(=O)(=O)Nc1ccc(Oc2ccc(F)cc2F)c(-c2cn(C)c(=O)c3[nH]ccc23)c1 | 0.152 µM | 28.1 µM | 0.162 µM | > 60 µM | 0.0327 µM | 20.5 µM | 0.0956 µM | 13.5 µM | 0.302 µM | 19.3 µM | 0.561 µM | 39.4 µM | 0.0402 µM | 19.6 µM | 1.29 µM | 34.7 µM | < 0.0109 µM | 6.2 µM | 0.0444 µM | 30.7 µM |
